Experimental data taken from patent US20240350643A1, “PROTEIN DEGRADATION AGENT” (SUZHOU KINTOR PHARMACEUTICALS, INC., priority 2021, published 2024).
Like-named read-outs stand apart in the source and are kept apart here.

Key:
HL60 cells = experiment: Anti-proliferation ability of compounds on HL60 cells (CTG); format: cell-based, human; conditions: 3 days, CellTiter-Glo, read-out: HL60 cells Proliferation inhibitory activity
Description: II. Activity test 2: Anti-proliferation ability of compounds on HL60 cells: 1 Cell plating
HL60 cells in the logarithmic growth phase were counted and plated evenly in a 96-well transparent bottom white plate at 20000 cells per well and 100 μL per well.
A certain amount of the compounds was weighed and diluted with DMSO to a 10 mM stock solution. The culture mediums corresponding to the cells were taken, and the drugs were diluted to the concentration required by the test, shaken gently and mixed evenly. 50 μl of the gradient dilution of the diluted compound was added to each well of the plated cells, and 50 μL of 0.1% DMSO was added to the control group. The plate was shaken gently, mixed evenly and incubated in a cell culture incubator for 3 days.
• 3.1 The CellTiter-GLo™ (CTG) reagent was taken in advance from the −20° C. refrigerator and equilibrated to room temperature in the dark (white bottle+brown bottle, 1:1 mixing evenly into the brown bottle, for later use). • 3.2 The 96-well plate was taken out and inspected under a microscope for growth situation. • 3.3 The bottom of the 96-well plate was tagged with white paper, and then the plate was wrapped with tin foil paper, shaken at 37° C. at 300 r for 10 min and mixed evenly. • 3.4 50 ul of CTG detection reagent was added to each well, Luminescence signal was detected using a microplate reader, and the inhibition rate was calculated. IC50 values of the compounds were calculated by XLfit software to evaluate the proliferation inhibitory activity on HL60 cells.

c-Myc protein = molecular target: T1, c-Myc protein (Homo sapiens, UniProt P01106); experiment: Ability of compounds to degrade c-Myc protein in HL60 cells (ELISA); format: cell-based; conditions: HL-60, 1 μM compound, 24 h, read-out: HL60 cells Protein degradation rate (1 μM)
T1 construct: endogenous in cells; host or cells: HL60 cells
T1 sequence (P01106 whole entry): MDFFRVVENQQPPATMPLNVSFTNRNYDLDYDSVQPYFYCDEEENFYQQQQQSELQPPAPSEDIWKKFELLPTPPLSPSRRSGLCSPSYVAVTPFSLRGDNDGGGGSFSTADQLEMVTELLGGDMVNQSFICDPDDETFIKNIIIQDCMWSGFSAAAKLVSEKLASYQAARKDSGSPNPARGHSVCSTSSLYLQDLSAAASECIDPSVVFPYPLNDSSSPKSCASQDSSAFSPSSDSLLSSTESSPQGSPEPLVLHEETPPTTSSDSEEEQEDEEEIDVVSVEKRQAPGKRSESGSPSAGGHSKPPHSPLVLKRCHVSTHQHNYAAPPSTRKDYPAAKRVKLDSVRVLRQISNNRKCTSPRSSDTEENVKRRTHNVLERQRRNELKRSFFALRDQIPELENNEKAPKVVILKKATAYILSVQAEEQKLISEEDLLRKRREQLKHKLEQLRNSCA
Description: I Activity test 1: Ability of compounds to degrade c-Myc protein in HL60 cells:
HL60 cells in the exponential growth phase were centrifuged, diluted with fresh culture mediums to 6×10^4 cells/100 μL and plated into a 96-well plate at 100 μL per well.
Preparation of test compounds: the compounds were weighed and diluted with DMSO to a 10 mM stock solution for later use. According to test requirements, drugs were diluted with cell culture mediums, with ten-fold dilutions starting from 10 μM, to achieve 3 concentration gradients: 10 μM, 1 μM and 100 NM; and finally, 1 μL of the drugs (DMSO content: 0.01%) were added to each well. For the blank control group, DMSO was also diluted with cell culture mediums, and finally, 1 μL of the control reagent (DMSO content: 0.01%) was added to each well.
3. Effect of drugs on c-Myc in cells as determined by ELISA
After 24 h of drug action, the culture mediums were removed, and the cells were washed once with ice-cold 1× PBS. PBS was removed, and 100 μL of ice-cold 1× Cell Lysis Buffer plus 1 mM phenylmethylsulfonyl fluoride (PMSF) was added to each well. The plate was incubated on ice for 20 min and centrifuged at 4000 RPM at 4° C. for 10 min for later use.
4. Reagent and antibody preparation in ELISA kit 1× wash buffer • 1). 16 mL of ELISA wash buffer concentrate (25×) was diluted with 384 mL of deionized water or distilled water, labeled as 1× Wash Buffer. • 2). The concentrate and 1× Wash Buffer were stored in the refrigerator. The diluted buffer was used within 14 days.
The cell extraction buffer contains 10 mM Tris (pH 7.4), 100 mM NaCl, 1 mM EDTA, 1 mM EGTA, 1 mM NaF, 20 mM Na4P2O7 2 mM Na3VO4. 1% Triton™ ×-100, 10% glycerol, 0.1% SDS and 0.5% deoxycholate. Immediately before use, PMSF (0.3 M stock solution in DMSO) was added to the buffer to a final concentration of 1 mM.
Standard curve configuration: The standard liquid was diluted using glass or plastic tubes. • 1). Huc-Myc (total) standard liquid (Invitrogen, KH02041) was reconstituted with a standard dilution to 1000 pg/mL. Refer to the standard vial label for instructions. The contents were gently swirled or mixed and then allowed to stand for 10 minutes to ensure complete reconstitution, labeled as 1,000 pg/mL human c-Myc. The standard liquid was used within 1 hour after reconstitution. • 2). 250 μL of standard dilution buffers were added to 7 test tubes respectively labeled 500, 250, 125, 62.5, 31.25, 15,63 and 0 pg/mL. • 3). 250 μL of the 1000 pg/ml standard stock solution was added to the first EP tube to a concentration of 500 pg/mL, vortexed and mixed evenly. 250 μL of the resulting mixture was further pipetted and added to the second EP tube to a concentration of 250 pg/mL. Serial dilutions were performed until the sixth EP tube with a concentration of 15.63 pg/mL. Dilution was not performed on the last EP tube. • 4). The remaining reconstituted standard liquid should be discarded, or aliquoted and frozen at −80° C. for further use. Standards can be frozen and thawed only once without losing immunoreactivity.
1× anti-rabbit IgG HRP solution: 1× anti-rabbit IgG HRP solution was prepared within 15 minutes of use. The anti-rabbit IgG HRP (100×) contained 50% viscous glycerol. To ensure accurate dilutions, the following operations were carried out: 1 For each 8-well test strip used in the test, 10 μl, of the anti-rabbit IgG -IRP (100×) solution was pipetted, wherein the pipette tip was wiped with clean absorbent paper to remove excess solutions, and then the solution was dispensed into a test tube containing 1 mL of HRP diluent and mixed thoroughly. 2. The unused anti-rabbit IgG HRP (100×) was placed in the refrigerator for storage.
50 μL of the standard liquid was added to the appropriate wells and not added to the blank control well. Except for the blank control well, 50 μL of Hu c-Myc (total) detection antibody solution was added to each well and mixed by tapping the side face of the plate. […]

| SMILES | IC50 (HL60 cells; Homo sapiens, HL-60, 72 h) | inhibition at 1 µM (c-Myc protein) | IC50 (HL60 cells) |
| --- | --- | --- | --- |
| O=C(Cc1cccc2ccccc12)NCc1ccc(CNC(=O)c2ccc3c(c2)C(=O)N(C2CCC(=O)NC2=O)C3=O)cc1C(F)(F)F (centres unmarked) [A121] | 6.3 ± 3 nM | 60 to 90% | – |
| O=C(Cc1cccc2ccccc12)NCc1ccc(CNC(=O)c2ccc3c(c2)C(=O)N(C2CCC(=O)NC2=O)C3=O)cn1 (centres unmarked) [A128] | 2140 ± 788 nM | 10 to 30% | – |
| CS(=O)(=O)N(CCc1cccc2ccccc12)Cc1ccc(CNC(=O)c2ccc3c(c2)C(=O)N(C2CCC(=O)NC2=O)C3=O)cc1 (centres unmarked) [A77] | 73.4 nM | 60 to 90% | – |
| CN(CCc1ccc(Cl)c(Cl)c1)Cc1ccc(CNCc2ccc3c(c2)C(=O)N(C2CCC(=O)NC2=O)C3=O)cc1 (centres unmarked) [A184] | 11.9 ± 5.5 nM | 60 to 90% | – |
| CN(CCc1cccc2ccccc12)Cc1ccc(CNC(=O)c2ccc3c(c2)C(=O)N(C2CCC(=O)NC2=O)C3=O)c(F)c1 (centres unmarked) [A105] | 8.3 ± 1.9 nM | 60 to 90% | – |
| CN(CCc1cccc2ccccc12)Cc1ccc(CNC(=O)c2ccc3c(c2)C(=O)N(C2CCC(=O)NC2=O)C3=O)nc1 (centres unmarked) [A126] | 8.5 ± 0.4 nM | 60 to 90% | – |
| CC(C)C(=O)N(CCc1cccc2ccccc12)Cc1ccc(CNC(=O)c2ccc3c(c2)C(=O)N(C2CCC(=O)NC2=O)C3=O)cc1 (centres unmarked) [A80] | < 3 nM | 60 to 90% | – |
| CN(CCc1cccc2ccccc12)Cc1ccc(CNCc2ccc3c(c2)C(=O)N(C2CCC(=O)NC2=O)C3=O)cc1 (centres unmarked) [A181] | 2 ± 1 nM | 60 to 90% | – |
| O=C1CCC(N2C(=O)c3ccc(C(=O)NC[C@H]4CC[C@H](CNC(=O)Nc5cccc6ccccc56)CC4)cc3C2=O)C(=O)N1 (some centres unmarked) [A46] | 50.2 ± 14 nM | 60 to 90% | – |
| O=C(CCc1cccc(Cl)c1Cl)NCc1ccc(CNC(=O)c2ccc3c(c2)C(=O)N(C2CCC(=O)NC2=O)C3=O)cc1 (centres unmarked) [A61] | 108 ± 6.5 nM | 60 to 90% | – |
| O=C(Cc1cccc2ccccc12)NCc1ccc(CNC(=O)c2ccc3c(c2)C(=O)N(C2CCC(=O)NC2=O)C3=O)c(C(F)(F)F)c1 (centres unmarked) [A117] | 13.8 ± 4 nM | 60 to 90% | – |
| O=C(Cc1ccccc1C(F)(F)F)NCc1ccc(CNC(=O)c2ccc3c(c2)C(=O)N(C2CCC(=O)NC2=O)C3=O)cc1 (centres unmarked) [A67] | 1070 ± 617 nM | 60 to 90% | – |
| O=C1CCC(N2C(=O)c3ccc(C(=O)NC[C@H]4CC[C@H](CNC(=O)Nc5cncc6ccccc56)CC4)cc3C2=O)C(=O)N1 (some centres unmarked) [A52] | 8060 ± 637 nM | 30 to 60% | – |
| O=C(CC1c2ccccc2-c2ccccc21)NCCCCCCNC(=O)c1ccc2c(c1)C(=O)N(C1CCC(=O)NC1=O)C2=O (centres unmarked) [A11] | 1240 ± 490 nM | 10 to 30% | – |

More lines, now with the values ahead:

| IC50 (HL60 cells; Homo sapiens, HL-60, 72 h) | inhibition at 1 µM (c-Myc protein) | IC50 (HL60 cells) | SMILES |
| --- | --- | --- | --- |
| 282 ± 27.5 nM | 60 to 90% | – | O=C(Cn1c2ccccc2c2cccnc21)NCc1ccc(CCNC(=O)c2ccc3c(c2)C(=O)N(C2CCC(=O)NC2=O)C3=O)cc1 (centres unmarked) [A43] |
| 11.2 ± 1.3 nM | 60 to 90% | – | CN(CCc1nccc2ccccc12)Cc1ccc(CNC(=O)c2ccc3c(c2)C(=O)N(C2CCC(=O)NC2=O)C3=O)cc1 (centres unmarked) [A98] |
| 17.8 ± 4.9 nM | 60 to 90% | – | CN(CCn1c2ccccc2c2cccnc21)Cc1ccc(CNC(=O)c2ccc3c(c2)C(=O)N(C2CCC(=O)NC2=O)C3=O)c(C(F)(F)F)c1 (centres unmarked) [A120] |
| – | 60 to 90% | 0.4 ± 0.3 nM | O=C(Cn1c2ccccc2c2cccnc21)NCc1ccc(CNC(=O)c2ccc3c(c2)CN(C2CCC(=O)NC2=O)C3=O)c(C(F)(F)F)c1 (centres unmarked) [A160] |
| < 3 nM | 60 to 90% | – | CN(CCn1c2ccccc2c2cccnc21)Cc1ccc(CNC(=O)c2ccc3c(c2)CN(C2CCC(=O)NC2=O)C3=O)cc1 (centres unmarked) [A156] |
| 0.3 ± 0.2 nM | 60 to 90% | – | O=C(Cn1c2ccccc2c2cccnc21)NCc1ccc(CC(=O)Nc2ccc3c(c2)CN(C2CCC(=O)NC2=O)C3=O)cc1 (centres unmarked) [A171] |
| 1.3 ± 0.3 nM | 60 to 90% | – | O=C1CCC(N2Cc3cc(C(=O)NCc4ccc(C5(NC(=O)Cc6cccc7ccccc67)CC5)cc4F)ccc3C2=O)C(=O)N1 (centres unmarked) [A163] |
| 334 ± 83.5 nM | 60 to 90% | – | O=C(Cn1c2ccccc2c2cccnc21)NCc1cnc(CNC(=O)c2ccc3c(c2)C(=O)N(C2CCC(=O)NC2=O)C3=O)s1 (centres unmarked) [A134] |
| 24.3 ± 8.5 nM | 60 to 90% | – | CN(Cc1ccc(CNC(=O)c2ccc3c(c2)C(=O)N(C2CCC(=O)NC2=O)C3=O)cc1)C(=O)Cc1cccc2ccccc12 (centres unmarked) [A71] |
| 14.4 ± 6.4 nM | 60 to 90% | – | O=C(Cc1cccc2ccccc12)NCc1ccc(CNCc2ccc3c(c2)C(=O)N(C2CCC(=O)NC2=O)C3=O)cc1 (centres unmarked) [A175] |
| 320 ± 17.6 nM | 60 to 90% | – | O=C(CCc1ccccc1Cl)NCc1ccc(CNC(=O)c2ccc3c(c2)C(=O)N(C2CCC(=O)NC2=O)C3=O)cc1 (centres unmarked) [A62] |
| 3 ± 0.1 nM | 60 to 90% | – | COc1cc(CNC(=O)Cn2c3ccccc3c3cccnc32)ccc1CNC(=O)c1ccc2c(c1)C(=O)N(C1CCC(=O)NC1=O)C2=O (centres unmarked) [A112] |
| 6.6 ± 0.8 nM | 60 to 90% | – | O=C(CN1CCc2cccnc21)NCc1ccc(CNC(=O)c2ccc3c(c2)CN(C2CCC(=O)NC2=O)C3=O)cc1 (centres unmarked) [A203] |
| 1.4 ± 0.01 nM | 60 to 90% | – | O=C(Cc1c(F)ccc2ccccc12)NCc1ccc(CNCc2ccc3c(c2)CN(C2CCC(=O)NC2=O)C3=O)cc1 (centres unmarked) [A195] |
| 6.5 ± 0.3 nM | 60 to 90% | – | COc1cc(CN(C)CCn2c3ccccc3c3cccnc32)ccc1CNC(=O)c1ccc2c(c1)C(=O)N(C1CCC(=O)NC1=O)C2=O (centres unmarked) [A114] |
| 3.3 ± 0.6 nM | 60 to 90% | – | O=C1CCC(N2Cc3cc(NC(=O)C[C@H]4CC[C@H](NC(=O)NCc5cccc6ccccc56)CC4)ccc3C2=O)C(=O)N1 (some centres unmarked) [A199] |
| 211 ± 45.9 nM | 60 to 90% | – | O=C(Cn1c2ccccc2c2cccnc21)NCc1csc(CNC(=O)c2ccc3c(c2)C(=O)N(C2CCC(=O)NC2=O)C3=O)n1 (centres unmarked) [A136] |
| 1.7 ± 0.6 nM | 60 to 90% | – | O=C(Cn1c2ccccc2c2cccnc21)NCc1ccc(CNCc2ccc3c(c2)C(=O)N(C2CCC(=O)NC2=O)C3=O)c(F)c1 (centres unmarked) [A190] |
| 59.3 ± 5.7 nM | 60 to 90% | – | O=C1CCC(N2C(=O)c3ccc(C(=O)NCc4ccc(CNCCc5cccc6ccccc56)cc4)cc3C2=O)C(=O)N1 (centres unmarked) [A73] |
| 1.3 ± 0.2 nM | 60 to 90% | – | O=C(Cn1c2ccccc2c2cccnc21)NCc1ccc(CNC(=O)c2ccc3c(c2)CN([C@@H]2CCC(=O)NC2=O)C3=O)cc1 [A225] |
